Tested on: AGS human gastric adenocarcinoma cells
Assay: Human microarray study (Affymetrix Clariom S) of treated AGS cells
Type: cell-based
Settings: two days
Experimental: AGS human gastric adenocarcinoma cells were treated with compound I-1, or DMSO alone (as a negative control) for two days. After two days, RNA was isolated from compound I-1 treated cells and DMSO treated cells, in duplicate, and subjected to microarray analysis using AFFYMETRIX CLARIOM S microarrays. Data were represented as fold change relative to the compound I-1 treated cells, negative values represented genes that were on higher in compound I-1 treated cells than in DMSO treated cells, and positive values represented genes that were on higher in DMSO treated cells than in compound I-1 treated cells. Values were averaged for the duplicate samples. We included data for the genes whose expression was altered by more than 3 fold, either up or down, in response to compound I-1.
Negative numbers indicate fold upregulation upon drug treatment. Positive numbers indicate fold downregulation upon drug treatment. […] In addition, Chac1, PCK2, and SLC7A11 were all shown to have a tumor promoting activity and to be associated with the more dangerous and lethal forms of cancer, and these three genes were the three most strongly repressed genes measured in this analysis. There were other examples in the data that supported this model, but the overall model was that compound I-1 increased the expression of tumor suppressor genes, and decreased the expression of tumor promoting genes.

SMILES: CCC(=O)N1CCc2cc(-c3ccc(C(=O)NCc4cccnc4)cc3)ccc21 [Compound I-1]
- expression of tumor promoting genes (microarray, overall model): decreased
- expression of tumor suppressor genes (microarray, overall model): increased
- Fold Change ABHD4 (negative = upregulated): −15.57 fold
- Fold Change ACAT2 (negative = upregulated): −5.41 fold
- Fold Change ACSS2 (negative = upregulated): −8.4 fold
- Fold Change AKR1B10 (negative = upregulated): −4.25 fold
- Fold Change AKR1B15 (negative = upregulated): −3.05 fold
- Fold Change AKR1C1 (negative = upregulated): −16.86 fold
- Fold Change AKR1C2 (negative = upregulated): −6.95 fold
- Fold Change AKR1C3 (negative = upregulated): −8.57 fold
- Fold Change ANO6 (negative = upregulated): −3.15 fold
- Fold Change ARHGEF3 (negative = upregulated): −6.93 fold
- Fold Change ARRDC3 (negative = upregulated): −5.99 fold
- Fold Change AVPI1 (negative = upregulated): −3.14 fold
- Fold Change BCL2L11 (negative = upregulated): −4 fold
- Fold Change BCL6 (negative = upregulated): −3.01 fold
- Fold Change BHLHE40 (negative = upregulated): −7.94 fold
- Fold Change CA5B (negative = upregulated): −4.1 fold
- Fold Change CBFA2T2 (negative = upregulated): −3.24 fold
- Fold Change CCNG2 (negative = upregulated): −3.58 fold
- Fold Change CDA (negative = upregulated): −3.79 fold
- Fold Change CDC42EP4 (negative = upregulated): −3.75 fold
- Fold Change CDKN1A (negative = upregulated): −3.11 fold
- Fold Change CNNM2 (negative = upregulated): −3.68 fold
- Fold Change CREBRF (negative = upregulated): −5.55 fold
- Fold Change CSF1 (negative = upregulated): −3.31 fold
- Fold Change CXCL17 (negative = upregulated): −4.1 fold
- Fold Change CYP51A1 (negative = upregulated): −4.74 fold
- Fold Change DBP (negative = upregulated): −10.5 fold
- Fold Change DHCR7 (negative = upregulated): −8.77 fold
- Fold Change DHCR24 (negative = upregulated): −3.44 fold
- Fold Change DNAJB4 (negative = upregulated): −3.09 fold
- Fold Change DNAJB5 (negative = upregulated): −3.84 fold
- Fold Change DNMBP (negative = upregulated): −4 fold
- Fold Change DUSP10 (negative = upregulated): −27.17 fold
- Fold Change EBP (negative = upregulated): −3.69 fold
- Fold Change EDN2 (negative = upregulated): −3 fold
- Fold Change EFNA1 (negative = upregulated): −5.15 fold
- Fold Change EPHA4 (negative = upregulated): −4.56 fold
- Fold Change EYA3 (negative = upregulated): −3.81 fold
- Fold Change F2RL1 (negative = upregulated): −3.37 fold
- Fold Change FAM46A (negative = upregulated): −4.76 fold
- Fold Change FAM46C (negative = upregulated): −3.6 fold
- Fold Change FAM160A1 (negative = upregulated): −3.86 fold
- Fold Change FASN (negative = upregulated): −5.82 fold
- Fold Change FDFT1 (negative = upregulated): −7.56 fold
- Fold Change FGA (negative = upregulated): −13.67 fold
- Fold Change FGG (negative = upregulated): −4.11 fold
- Fold Change G6PD (negative = upregulated): −3.11 fold
- Fold Change GALM (negative = upregulated): −3.17 fold
- Fold Change GATSL2 (negative = upregulated): −3.58 fold
- Fold Change GDF15 (negative = upregulated): −4.83 fold
- Fold Change GNE (negative = upregulated): −3.21 fold
- Fold Change GRHL3 (negative = upregulated): −4.96 fold
- Fold Change HHLA2 (negative = upregulated): −3.59 fold
- Fold Change HK1 (negative = upregulated): −6.34 fold
- Fold Change HMGCR (negative = upregulated): −4.8 fold
- Fold Change HMGCS1 (negative = upregulated): −9.9 fold
- Fold Change HMOX1 (negative = upregulated): −14.23 fold
- Fold Change HSPA1A; HSPA1B (negative = upregulated): −5.34 fold
- Fold Change HSPA1B; HSPA1A (negative = upregulated): −5.04 fold
- Fold Change HSPB8 (negative = upregulated): −4.71 fold
- Fold Change IDI1 (negative = upregulated): −5.77 fold
- Fold Change IL1RN (negative = upregulated): −4.04 fold
- Fold Change ILF2 (negative = upregulated): −3.2 fold
- Fold Change INPP5D (negative = upregulated): −3.12 fold
- Fold Change INSIG1 (negative = upregulated): −8.5 fold
- Fold Change JAG1 (negative = upregulated): −3.31 fold
- Fold Change JAK2 (negative = upregulated): −3.6 fold
- Fold Change KAT6B (negative = upregulated): −3.77 fold
- Fold Change LEMD1 (negative = upregulated): −3.16 fold
- Fold Change LIPG (negative = upregulated): −3.65 fold
- Fold Change LNX1 (negative = upregulated): −4.32 fold
- Fold Change LPIN1; MIR548S (negative = upregulated): −3.22 fold
- Fold Change LY6D (negative = upregulated): −4.81 fold
- Fold Change LYPD3 (negative = upregulated): −4.09 fold
- Fold Change MICA (negative = upregulated): −3.66 fold
- Fold Change MICB (negative = upregulated): −12.71 fold
- Fold Change MID1 (negative = upregulated): −3.25 fold
- Fold Change MSMO1 (negative = upregulated): −9.47 fold
- Fold Change MT1E (negative = upregulated): −3.03 fold
- Fold Change MT1L (negative = upregulated): −3 fold
- Fold Change MTSS1L (negative = upregulated): −3.41 fold
- Fold Change MVD (negative = upregulated): −3.82 fold
- Fold Change MVK (negative = upregulated): −3.11 fold
- Fold Change MXD1 (negative = upregulated): −6.23 fold
- Fold Change MYLIP; MIR4639 (negative = upregulated): −3.88 fold
- Fold Change NEU1 (negative = upregulated): −4.89 fold
- Fold Change NEURL3 (negative = upregulated): −3.41 fold
- Fold Change NFAT5 (negative = upregulated): −3.32 fold
- Fold Change NFKBIA (negative = upregulated): −4.97 fold
- Fold Change NR1D1 (negative = upregulated): −23.3 fold
- Fold Change NR1D2 (negative = upregulated): −3.01 fold
- Fold Change NSDHL (negative = upregulated): −3.29 fold
- Fold Change OCLM (negative = upregulated): −3.22 fold
- Fold Change OSGIN1 (negative = upregulated): −3.63 fold
- Fold Change OTUD1 (negative = upregulated): −3.29 fold
- Fold Change OVOL1 (negative = upregulated): −4.01 fold
- Fold Change PADI1 (negative = upregulated): −3.48 fold
- Fold Change PCDH7 (negative = upregulated): −3.81 fold
- Fold Change PDGFRL (negative = upregulated): −6.65 fold
- Fold Change PERI; MIR6883 (negative = upregulated): −16.75 fold
- Fold Change PGM2L1 (negative = upregulated): −3.76 fold
- Fold Change PIM1 (negative = upregulated): −3.7 fold
- Fold Change PLK2 (negative = upregulated): −3.13 fold
- Fold Change PLPP3 (negative = upregulated): −3.74 fold
- Fold Change POLR2L (negative = upregulated): −3.14 fold
- Fold Change PRDM1 (negative = upregulated): −3.06 fold
- Fold Change PRSS22 (negative = upregulated): −4.6 fold
- Fold Change PSCA (negative = upregulated): −3.18 fold
- Fold Change PVRL1 (negative = upregulated): −3.57 fold
- Fold Change PVRL4 (negative = upregulated): −3.32 fold
- Fold Change RAB30 (negative = upregulated): −3.82 fold
- Fold Change RASSF5 (negative = upregulated): −5.9 fold
- Fold Change RBM26 (negative = upregulated): −6.5 fold
- Fold Change REG1A (negative = upregulated): −3.05 fold
- Fold Change RHOV (negative = upregulated): −4.66 fold
- Fold Change RND1 (negative = upregulated): −5.3 fold
- Fold Change RRAGC (negative = upregulated): −3.01 fold
- Fold Change RSRP1 (negative = upregulated): −3.61 fold
- Fold Change RYBP (negative = upregulated): −3.38 fold
- Fold Change SAT2 (negative = upregulated): −3.99 fold
- Fold Change SC5D (negative = upregulated): −3.39 fold
- Fold Change SEC24D (negative = upregulated): −3.84 fold
- Fold Change SLC20A1 (negative = upregulated): −4.87 fold
- Fold Change SLC25A25 (negative = upregulated): −3.73 fold
- Fold Change SLC30A1 (negative = upregulated): −4.84 fold
- Fold Change SLN (negative = upregulated): −5.63 fold
- Fold Change SPATA5 (negative = upregulated): −3.26 fold
- Fold Change SQLE (negative = upregulated): −4.32 fold
- Fold Change STK17B (negative = upregulated): −6.26 fold
- Fold Change SUSD6 (negative = upregulated): −3.48 fold
- Fold Change TAF5 (negative = upregulated): −3.41 fold
- Fold Change TEF (negative = upregulated): −6.45 fold
- Fold Change TGFBR3 (negative = upregulated): −3.86 fold
- Fold Change TIAL1 (negative = upregulated): −4.62 fold
- Fold Change TKT (negative = upregulated): −3.56 fold
- Fold Change TMEM2 (negative = upregulated): −4.49 fold
- Fold Change TMEM263 (negative = upregulated): −3.01 fold
- Fold Change TMPRSS2 (negative = upregulated): −5.06 fold
- Fold Change TNFSF13B (negative = upregulated): −4.12 fold
- Fold Change TRIM24 (negative = upregulated): −3.01 fold
- Fold Change UGDH (negative = upregulated): −4.16 fold
- Fold Change YBX1 (negative = upregulated): −3.62 fold
- Fold Change ZNF114 (negative = upregulated): −7.07 fold
- Fold Change ZNRF3 (negative = upregulated): −3.14 fold
- Fold Change ZSWIM6 (negative = upregulated): −3.28 fold
- Fold Change SQSTM1 (negative = upregulated, first SQSTM1 entry): −4.27 fold
- Fold Change SQSTM1 (negative = upregulated, second SQSTM1 entry): −3.5 fold
- Fold Change AARS (positive = downregulated): 3.12 fold
- Fold Change AJUBA (positive = downregulated): 8.65 fold
- Fold Change AKTIP (positive = downregulated): 3.39 fold
- Fold Change ARHGEF2 (positive = downregulated): 4.73 fold
- Fold Change ASNS (positive = downregulated): 12.78 fold
- Fold Change ASS1 (positive = downregulated): 7.34 fold
- Fold Change ATF5; MIR4751 (positive = downregulated): 6.55 fold
- Fold Change BRCA1 (positive = downregulated): 4.22 fold
- Fold Change BTC (positive = downregulated): 5.04 fold
- Fold Change C4BPB (positive = downregulated): 3.69 fold
- Fold Change C5orf28 (positive = downregulated): 4.4 fold
- Fold Change C12orf4 (positive = downregulated): 3.45 fold
- Fold Change C14orf79 (positive = downregulated): 3.68 fold
- Fold Change C17orf80 (positive = downregulated): 4.3 fold
- Fold Change CARS (positive = downregulated): 5.53 fold
- Fold Change CCDC125 (positive = downregulated): 3.31 fold
- Fold Change CCDC138 (positive = downregulated): 3.07 fold
- Fold Change CDC7 (positive = downregulated): 3.01 fold
- Fold Change CDH11 (positive = downregulated): 4.69 fold
- Fold Change CDX2 (positive = downregulated): 3.07 fold
